Laboratory results reported in patent US8778970B2, “Benzyl piperidine compound” (Dainippon Sumitomo Pharma Co., Ltd, priority 2009, dated 2014).

Columns and labels:
[1] = molecular target: human serotonin transporter (h-SERT) (Homo sapiens (Human), UniProt P31645); assay: [3H] citalopram binding screening test for inhibitory effect on human serotonin reuptake; settings: h-SERT/CHO membrane preparation, [3H] citalopram approx. 2 nM; read-out: h-SERT binding inhibition constant (Ki)
Protocol: Screening Test Using [^3H] Citalopram Binding for Evaluating Inhibitory Effect on Human Serotonin Reuptake
1-1 Cells Used and Preparation of Membrane Preparation
CHO cells expressing a human serotonin transporter (h-SERT) (h-SERT/CHO) were used in the experiment. The cells were cultured in F12 containing 10% FCS, 500 μg/ml Geneticin and 100 U/ml penicillin-100 μg/ml streptomycin (all manufactured by Sigma-Aldrich Corp.) in a 5% CO2 incubator. The cells dissociated and collected therefrom using SERT buffer (50 mM Tris-HCl containing 120 mM NaCl and 5 mM KCl (pH=7.4)) were homogenized using a Teflon (R) homogenizer and then centrifuged (50,000×g, 30 min, 4° C.). The precipitate was resuspended in an appropriate amount of SERT buffer and stored at −80° C. until use. The amount of the protein in the membrane preparation were determined using bovine serum albumin (manufactured by Sigma-Aldrich Corp.) as standards and Dye Reagent Concentrate (manufactured by Bio-Rad Laboratories, Inc.).
1-2 Receptor Binding Experiment
[^3H] citalopram binding was assayed according to the method of Owens et al. [Owens M. J. et al., J. Pharm. […] Specifically, 50 μl of [^3H] citalopram (final concentration: approximately 2 nM) diluted with SERT buffer, 149 μl of the h-SERT/CHO membrane preparation (40 μg/well in terms of the amount of the protein), and 1 μl of a solution of a test drug dissolved in DMSO were added to prepare 200 μl in total of a solution. This solution was reacted at room temperature for 60 minutes and then immediately suction-filtered at a low pressure using a glass fiber filter paper coated with a 0.05% aqueous polyethyleneimine solution. The glass fiber filter paper was washed twice with 250 μl of SERT buffer and then transferred to a glass vial containing 4 ml of ACS-II (manufactured by GE Healthcare (formerly Amersham Biosciences)). Radioactivity remaining on the filter paper was measured using a liquid scintillation counter. The nonspecific binding of [^3H] citalopram was defined as a binding amount in the presence of 1 μM clomipramine.
The smaller numeric value of the h-SERT binding inhibition constant Ki means a higher inhibitory effect on human serotonin reuptake.

[2] = molecular target: human serotonin 1A receptor (h-5-HT1A) (Homo sapiens (Human), UniProt P08908); assay: [3H] 8-OH-DPAT binding test for affinity for human serotonin 1A receptor; settings: h-5-HT1A/CHO membrane preparation, [3H] 8-OH-DPAT 0.5 nM; read-out: h-5-HT1A binding inhibition constant (Ki)
human serotonin 1A receptor (h-5-HT1A), sequence (P08908 whole entry): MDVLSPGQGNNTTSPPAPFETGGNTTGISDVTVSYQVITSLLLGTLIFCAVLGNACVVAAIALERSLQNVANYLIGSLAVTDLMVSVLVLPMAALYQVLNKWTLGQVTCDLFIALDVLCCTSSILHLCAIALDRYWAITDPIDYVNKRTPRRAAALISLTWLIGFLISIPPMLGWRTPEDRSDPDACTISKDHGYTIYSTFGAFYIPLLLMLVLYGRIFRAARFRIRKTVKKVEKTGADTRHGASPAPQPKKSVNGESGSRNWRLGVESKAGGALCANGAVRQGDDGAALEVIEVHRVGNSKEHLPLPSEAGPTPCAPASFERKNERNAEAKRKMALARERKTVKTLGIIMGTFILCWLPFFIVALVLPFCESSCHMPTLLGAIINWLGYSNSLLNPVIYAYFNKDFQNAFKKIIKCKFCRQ
Protocol: [^3H] 8-OH-DPAT Binding Test for Evaluating Affinity for Human Serotonin 1A Receptor
2-1 Cells Used and Preparation of Membrane Preparation
CHO cells expressing a human serotonin 1A receptor (h-5-HT1A) (h-5-HT1A/CHO) were used in the experiment. The cells were cultured in F12 containing 10% FCS, 500 μg/ml Geneticin and 100 U/ml penicillin-100 μg/ml streptomycin (all manufactured by Sigma-Aldrich Corp.) in a 5% CO2 incubator. Membrane preparation were prepared according to the method of Yabuuchi et al.^3). Specifically, the cells dissociated and collected therefrom using 50 mM Tris-HCl (pH=7.4) were homogenized using a Teflon® homogenizer and then centrifuged (48,000×g, 20 min, 4° C.). The precipitate was resuspended in an appropriate amount of 50 mM Tris-HCl (pH=7.4) and stored at −80° C. until use. The amount of the protein in the membrane preparation were determined using bovine serum albumin (manufactured by Sigma-Aldrich Corp.) as standards and Dye Reagent Concentrate (manufactured by Bio-Rad Laboratories, Inc.).
2-2 Receptor Binding Experiment
50 μl of [^3H] 8-OH-DPAT (final concentration: 0.5 nM), 1 μl of a test drug solution, and 149 μl of the h-5-HT1A/CHO membrane preparation (25 μg/well in terms of the amount of the protein) were added into a buffer containing 50 mM Tris-HCl (pH=7.4) and 4 mM CaCl2, and 200 μl in total of the reaction solution was used in the assay. The reaction solution was reacted at room temperature for 30 minutes and then immediately suction-filtered at a low pressure using a glass fiber filter paper. The glass fiber filter paper was washed twice with 250 μl of 50 mM Tris-HCl (pH=7.4) and then added to a counting vial containing 4 ml of ACS-II (manufactured by GE Healthcare (formerly Amersham Biosciences)). Receptor binding-derived radioactivity remaining on the filter paper was measured using a liquid scintillation counter. The nonspecific binding was defined as a binding amount in the presence of 10 μM 8-OH-DPAT.
8-OH-DPAT. Moreover, the Kd value was the binding dissociation constant of [^3H] […] The smaller numeric value of the h-5-HT1A binding inhibition constant Ki means higher affinity for human serotonin 1A receptors.

CYP2D6 [3] = molecular target: T1, CYP2D6 (Homo sapiens (Human), UniProt P10635); assay: CYP2D6 inhibition screening test (bufuralol 1'-hydroxylation, pooled human liver microsomes); type: in vitro ADME; settings: substrate bufuralol, 37° C. 10 min
T1 sequence (P10635 whole entry): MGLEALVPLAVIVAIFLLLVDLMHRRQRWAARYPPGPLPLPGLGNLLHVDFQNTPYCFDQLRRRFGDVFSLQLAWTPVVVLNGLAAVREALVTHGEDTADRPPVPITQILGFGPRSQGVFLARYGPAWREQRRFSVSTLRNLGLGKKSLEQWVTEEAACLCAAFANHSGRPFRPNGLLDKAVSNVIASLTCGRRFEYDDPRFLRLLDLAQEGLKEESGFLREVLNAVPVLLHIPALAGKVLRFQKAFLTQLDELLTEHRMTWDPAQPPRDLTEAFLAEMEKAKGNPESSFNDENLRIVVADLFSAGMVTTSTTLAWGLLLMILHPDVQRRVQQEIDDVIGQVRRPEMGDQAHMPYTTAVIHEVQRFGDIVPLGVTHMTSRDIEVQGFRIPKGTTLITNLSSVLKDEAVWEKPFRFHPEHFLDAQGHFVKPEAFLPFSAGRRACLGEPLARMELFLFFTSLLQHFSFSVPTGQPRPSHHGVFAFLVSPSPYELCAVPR
Protocol: CYP2D6 Inhibition Screening Test
Bufuralol hydrochloride was purchased from Toronto Research Chemicals Inc., and pooled human liver microsomes were purchased from Xenotech, LLC.
Bufuralol hydrochloride was dissolved in DMSO at a concentration of 1.0 mM and then diluted 20-fold with distilled water.
• 1. A 10 mM solution of a test drug in DMSO was serially diluted with DMSO at four 5-fold dilutions to prepare 10, 2, 0.4 and 0.08 mM DMSO solutions. • 2. Each test drug solution of step 1 or DMSO was diluted 160-fold with the human liver microsome solution and dispensed at a concentration of 80 μL/well to a microplate. • 3. 10 μL of the substrate solution and 10 μL of the β-NADPH solution were added to each well of step 2, and the mixture was incubated at 37° C. for 10 min. • 4. The reaction was terminated by the addition of 300 μL of methanol. • 5. The reaction mixture was filtered and analyzed by LC-MS/MS. 3-4 Quantification and Calculation
The amount of 1′-hydroxybufuralol formed was determined by LC-MS/MS, and this value was used as the metabolic activity value of CYP2D6 in each well. The residual activity of each sample-supplemented group was determined by comparison with the activity in the well containing DMSO used as a test drug. IC50 values in CYP2D6 inhibition were determined from the test drug concentrations. […] The larger numeric value of IC50 in CYP2D6 inhibition means weaker CYP2D6 inhibition.

CYP2D6 [4] = molecular target: T1, CYP2D6; assay: Screening test on contribution ratio of CYP2D6 in human liver microsomal metabolism; type: in vitro ADME; settings: 1 mg/mL human liver microsomes, 1 μM test substance, with/without 4 μM quinidine; values marked *) are reference values due to relative stability
Protocol: Screening Test on Contribution Ratio of CYP2D6 in Human Liver Microsomal Metabolism
0.2 mL of a 50 mM potassium phosphate buffer (pH 7.4) containing 3 mM (final concentration) NADPH (manufactured by Oriental Yeast Co., Ltd.), 1 mg/mL human liver microsomes (manufactured by Xenotech, LLC) and 1 μM test substance was warmed in a water bath at 37° C. for metabolic reaction. After 15- or 30-minute reaction, the reaction was terminated by the addition of a 3-fold volume of methanol with respect to the reaction solution and subsequent stirring. This reaction solution was centrifuged to precipitate proteins. Then, the supernatant was collected and subjected to LC-MS/MS analysis. The results were analyzed as follows:
The test substance was quantified, and time-dependent change in its residual amount was logarithmically plotted. The rate of metabolism was calculated from the slope.
The ratio of the rate of metabolism in the presence of quinidine added at 4 μM (final concentration) to the reaction solution to that in the absence of quinidine was used as the contribution ratio of enzymes other than CYP2D6. The remaining portion was used as the contribution ratio of CYP2D6. Specifically, it was calculated according to the formula: Contribution ratio (%)={1−(Rate of metabolism [in the presence of quinidine]/Rate of metabolism [in the absence of quinidine])}×100 The smaller numeric value of the contribution ratio of CYP2D6 means the small contribution of CYP2D6.

human serotonin transporter (h-SERT), sequence (P31645 whole entry): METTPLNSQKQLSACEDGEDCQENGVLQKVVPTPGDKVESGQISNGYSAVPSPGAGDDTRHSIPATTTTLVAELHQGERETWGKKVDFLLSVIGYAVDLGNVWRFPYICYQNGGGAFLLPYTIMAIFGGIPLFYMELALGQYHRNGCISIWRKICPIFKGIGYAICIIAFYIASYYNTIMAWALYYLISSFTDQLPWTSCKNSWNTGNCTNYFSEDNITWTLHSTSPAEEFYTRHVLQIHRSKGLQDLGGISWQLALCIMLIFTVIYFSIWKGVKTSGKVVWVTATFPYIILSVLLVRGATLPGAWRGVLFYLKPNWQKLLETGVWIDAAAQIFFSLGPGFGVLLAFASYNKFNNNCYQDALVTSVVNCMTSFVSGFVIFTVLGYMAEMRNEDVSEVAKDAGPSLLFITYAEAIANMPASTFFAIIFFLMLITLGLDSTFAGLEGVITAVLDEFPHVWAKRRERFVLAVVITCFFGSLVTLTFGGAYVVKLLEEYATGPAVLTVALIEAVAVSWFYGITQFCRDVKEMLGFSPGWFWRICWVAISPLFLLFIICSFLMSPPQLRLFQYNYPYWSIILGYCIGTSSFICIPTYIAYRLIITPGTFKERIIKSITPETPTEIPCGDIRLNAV

SMILES	Ki [1] [nM]	Ki [2] [nM]	IC50 (CYP2D6 [3]) [nM]	CYP2D6 contribution ratio (CYP2D6 [4])
Cl.O=c1ccoc2ccc(CCN3CCC(Cc4ccc(Br)c(OCCO)c4)CC3)cc12 [Compound 5-7, 6-(2-{4-[4-Bromo-3-(2-hydroxyethoxy)benzyl]piperidin-1-yl}ethyl)-4H-chromen-4-one hydrochloride]	3.5	2.1	34900	9.2*) %
Oc1cc(CC2CCN(CCc3ccc4c(c3)C(O)CCO4)CC2)ccc1Br (stereo not drawn) [Compound 5-15, 6-{2-[4-(4-Bromo-3-hydroxybenzyl)piperidin-1-yl]ethyl}-3,4-dihydro-2H-chromen-4-ol]	41	8.5	40300	0*) %
O=C1c2cc(CCN3CCC(Cc4ccc(Br)c(OCCO)c4)CC3)ccc2OCC1O (stereo not drawn) [Compound 5-4, 6-(2-{4-[4-Bromo-3-(2-hydroxyethoxy)benzyl]piperidin-1-yl}ethyl)-3-hydroxy-2,3-dihydro-4H-chromen-4-one]	18	5.5	> 50000	0*) %
O=C1c2cc(CCN3CCC(Cc4ccc(Br)c(O)c4)CC3)ccc2OCC1O (stereo not drawn) [Compound 5-5, 6-{2-[4-(4-Bromo-3-hydroxybenzyl)piperidin-1-yl]ethyl}-3-hydroxy-2,3-dihydro-4H-chromen-4-one]	11	1.1	23000	24%

The remaining lines, values ahead:

Ki [1] [nM]	Ki [2] [nM]	IC50 (CYP2D6 [3]) [nM]	CYP2D6 contribution ratio (CYP2D6 [4])	SMILES
1.7	0.27	16800	46%	O=c1ccoc2ccc(CCN3CCC(Cc4ccc(Br)c(O)c4)CC3)cc12 [Compound 5-9, 6-{2-[4-(4-Bromo-3-hydroxybenzyl)piperidin-1-yl]ethyl}-4H-chromen-4-one]
6.5	1.3	9900	98%	O=C1CCOc2ccc(CCN3CCC(Cc4ccc(Br)c(O)c4)CC3)cc21 [Compound 5-8, 6-{2-[4-(4-Bromo-3-hydroxybenzyl)piperidin-1-yl]ethyl}-2,3-dihydro-4H-chromen-4-one]
